The source of these data is US9187472B2 (AbbVie Inc., priority 2012, dated 2015).

Each structure is given as a SMILES string. pIC50: −log10 of the molar value.

The test system of one test is PC3 cells. The experiment in a line: NAMPT Cell Proliferation Assay. The following applies: 5 days incubation, cell viability by Cell Titer Glo. It is filed as cell-based. The procedure, abridged: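 Following overnight attachment in RPMI with 10% heat-inactivated FBS, PC3 cells at 500 per well receive compounds spanning 10 μM down to 1×10^−5 μM. Growth is assessed by luminescent viability read after 5 days.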
In general terms: Cellular ATP, detected with luciferase, serves as a proxy for viable cell number.
For the compound `Cc1nc(C(=O)N2CCC(c3ccc(C(=O)NCc4ccn5ccnc5c4)cc3)CC2)c2n1CCCC2` [Example 1099, Example 1099 N-(imidazo[1,2-a]pyridin-7-ylmethyl)-4-{1-[(3-meth-5,6,7,8-tetrahydroimidazo[1,5-a]pyridin-1-yl)carbonyl]piperidin-4-yl}benzamide], the negative logarithm of the IC50 (pIC50) (commonly the negative decadic logarithm of the IC50, by convention in mol/L) is 7.81.

The same test, now with this note: Homo sapiens, PC-3, 120 h, 5 days incubation, cell viability by Cell Titer Glo.
Regarding `O=C(NCc1ccn2ccnc2c1)c1ccc(C2CCN(C(=O)c3cnc4ccccc4n3)CC2)cc1` [Example 989, N-(imidazo[1,2-a]pyridin-7-ylmethyl)-4-[1-(quinoxalin-2-ylcarbonyl)piperidin-4-yl]benzamide], the negative-log IC50 (pIC50) is 7.17.

With `O=C(Cc1ccc2nccn2c1)Nc1ccc(NC(=O)CC2CCCC2)cc1` [Example 854, 2-cyclopentyl-N-{4-[(imidazo[1,2-a]pyridin-6-ylacetyl)amino]phenyl}acetamide], the negative-log IC50 (pIC50) is 9.38.

In turn, `O=C(NCc1ccn2ccnc2c1)Nc1ccc(C2CCN(C(=O)c3ccc4snnc4c3)CC2)cc1` [Example 1057, 1-{4-[1-(1,2,3-benzothiadiazol-5-ylcarbonyl)piperidin-4-yl]phenyl}-3-(imidazo[1,2-a]pyridin-7-ylmethyl)urea] showed a pIC50 of 7.59.

`O=C(NCc1ccn2ccnc2c1)c1ccc(C2CCN(C(=O)C3COc4ccccc4O3)CC2)cc1` (stereo not drawn) [Example 976, 4-[1-(2,3-dihydro-1,4-benzodioxin-2-ylcarbonyl)piperidin-4-yl]-N-(imidazo[1,2-a]pyridin-7-ylmethyl)benzamide] gave a pIC50 of 7.46.

`CC(C)(C)CC(=O)N1CCC(c2ccc(NC(=O)NCc3ccn4ccnc4c3)cc2)CC1` [Example 940, 1-{4-[1-(3,3-dimethylbutanoyl)piperidin-4-yl]phenyl}-3-(imidazo[1,2-a]pyridin-7-ylmethyl)urea] showed a pIC50 of 9.16.

For the compound `N#Cc1cnc(C(=O)N2CCC(c3ccc(NC(=O)NCc4ccn5ccnc5c4)cc3)CC2)c(Cl)c1` [Example 1126, 1-(4-{1-[(3-chloro-5-cyanopyridin-2-yl)carbonyl]piperidin-4-yl}phenyl)-3-(imidazo[1,2-a]pyridin-7-ylmethyl)urea], the pIC50 was 8.63.

`O=C(NCc1ccn2ccnc2c1)c1ccc(C2=CCN(c3ccncn3)CC2)cc1` [Example 1154, N-(imidazo[1,2-a]pyridin-7-ylmethyl)-4-[1-(pyrimidin-4-yl)-1,2,3,6-tetrahydropyridin-4-yl]benzamide]: the pIC50 is 6.77.

`O=C(NCc1ccn2ccnc2c1)c1ccc(C2CCN(C(=O)N3CCCCC3)CC2)cc1` [Example 1068, N-(imidazo[1,2-a]pyridin-7-ylmethyl)-4-[1-(piperidin-1-ylcarbonyl)piperidin-4-yl]benzamide] had a pIC50 of 8.24.

Regarding `COc1ccc(OC)c(C(=O)N2CCC(c3ccc(NC(=O)NCc4ccn5ccnc5c4)cc3)CC2)c1` [Example 946, 1-{4-[1-(2,5-dimethoxybenzoyl)piperidin-4-yl]phenyl}-3-(imidazo[1,2-a]pyridin-7-ylmethyl)urea], the pIC50 was 8.23.

As for `O=C(NCc1ccn2ccnc2c1)Nc1ccc(C2CCN(C(=O)c3cnc(C4CC4)s3)CC2)cc1` [Example 1121, 1-(4-{1-[(2-cyclopropyl-1,3-thiazol-5-yl)carbonyl]piperidin-4-yl}phenyl)-3-(imidazo[1,2-a]pyridin-7-ylmethyl)urea], the pIC50 is 8.07.

`CC1(C(=O)N2CCC(c3ccc(C(=O)NCc4cn5ccnc5cn4)c(F)c3)CC2)CC1` [Example 1158, 2-fluoro-N-(imidazo[1,2-a]pyrazin-6-ylmethyl)-4-{1-[(1-methylcyclopropyl)carbonyl]piperidin-4-yl}benzamide] showed a pIC50 of 8.69.

With `O=C(NCc1cn2ccnc2cn1)c1ccc(C2CCN(C(=O)CCC(F)(F)F)CC2)s1` [Example 840, N-(imidazo[1,2-a]pyrazin-6-ylmethyl)-5-[1-(4,4,4-trifluorobutanoyl)piperidin-4-yl]thiophene-2-carboxamide], the pIC50 is 8.56.

On to `N#Cc1ccccc1C(=O)N1CCC(c2ccc(C(=O)NCc3ccc4ncnn4c3)s2)CC1` [Example 852, 5-[1-(2-cyanobenzoyl)piperidin-4-yl]-N-([1,2,4]triazolo[1,5-a]pyridin-6-ylmethyl)thiophene-2-carboxamide], for which the pIC50 is 8.08.

As for `O=C(NCc1ccn2ccnc2c1)Nc1ccc(C2CCN(C(=O)/C=C/c3ccccn3)CC2)cc1` [Example 1040, 1-(imidazo[1,2-a]pyridin-7-ylmethyl)-3-(4-{1-[(2E)-3-(pyridin-2-yl)prop-2-enoyl]piperidin-4-yl}phenyl)urea], the negative logarithm of the IC50 (pIC50) is 7.87.

For the compound `CC(C)C(=O)N1CCC(c2ccc(NC(=O)Cc3ccc4nccn4c3)cc2)CC1` [Example 865, 2-(imidazo[1,2-a]pyridin-6-yl)-N-{4-[1-(2-methylpropanoyl)piperidin-4-yl]phenyl}acetamide], the pIC50 was 9.06.

Turning to `CC1=C(C(=O)N2CCC(c3ccc(NC(=O)NCc4ccn5ccnc5c4)cc3)CC2)CCC1` [Example 941, 1-(imidazo[1,2-a]pyridin-7-ylmethyl)-3-(4-{1-[(2-methylcyclopent-1-en-1-yl)carbonyl]piperidin-4-yl}phenyl)urea], the pIC50 is 9.28.

The compound `CCc1cc(C(=O)N2CCC(c3ccc(C(=O)NCc4ccn5ccnc5c4)cc3)CC2)on1` [Example 1002, 4-{1-[(3-ethyl-1,2-oxazol-5-yl)carbonyl]piperidin-4-yl}-N-(imidazo[1,2-a]pyridin-7-ylmethyl)benzamide] had a pIC50 of 6.81.

Take `CCC(CC)C(=O)N1CCC(c2ccc(C(=O)NCc3ccn4ccnc4c3)cc2)CC1` [Example 917, 4-[1-(2-ethylbutanoyl)piperidin-4-yl]-N-(imidazo[1,2-a]pyridin-7-ylmethyl)benzamide]: the pIC50 was 8.17.

The compound `CC(C)n1ccc(CC(=O)N2CCC(c3ccc(C(=O)NCc4ccn5ccnc5c4)cc3)CC2)n1` [Example 1097, N-(imidazo[1,2-a]pyridin-7-ylmethyl)-4-(1-{[1-(propan-2-yl)-1H-pyrazol-3-yl]acetyl}piperidin-4-yl)benzamide] gave a negative logarithm of the IC50 (pIC50) of 7.19.

As to `O=C(NCc1ccn2ccnc2c1)Nc1ccc(C2CCN(C(=O)c3cnnc4ccccc34)CC2)cc1` [Example 1031, 1-{4-[1-(cinnolin-4-ylcarbonyl)piperidin-4-yl]phenyl}-3-(imidazo[1,2-a]pyridin-7-ylmethyl)urea], the pIC50 is 8.11.

As for `CC(C)(C)OC(=O)N1CCC(c2ccc(C(=O)NCc3ccc4nccn4n3)cc2)CC1` [Example 855, tert-butyl 4-{4-[(imidazo[1,2-b]pyridazin-6-ylmethyl)carbamoyl]phenyl}piperidine-1-carboxylate], the negative logarithm of the IC50 (pIC50) is 6.95.

`CC(C)c1nc(C(=O)N2CCC(c3ccc(NC(=O)NCc4ccn5ccnc5c4)cc3)CC2)co1` [Example 1145, 1-(imidazo[1,2-a]pyridin-7-ylmethyl)-3-[4-(1-{[2-(propan-2-yl)-1,3-oxazol-4-yl]carbonyl}piperidin-4-yl)phenyl]urea]: the negative logarithm of the IC50 (pIC50) is 8.15.

For the compound `CC(C)(C)OC(=O)N1CCC(c2ccc(NC(=O)Cc3ccn4ccnc4c3)cc2)CC1` [Example 900, tert-butyl 4-{4-[(imidazo[1,2-a]pyridin-7-ylacetyl)amino]phenyl}piperidine-1-carboxylate], the negative-log IC50 (pIC50) was 7.76.

As to `O=C(NCc1ccn2ccnc2c1)Nc1ccc(C2CCN(C(=O)c3ccnc(Cl)c3F)CC2)cc1` [Example 1018, 1-(4-{1-[(2-chloro-3-fluoropyridin-4-yl)carbonyl]piperidin-4-yl}phenyl)-3-(imidazo[1,2-a]pyridin-7-ylmethyl)urea], the pIC50 is 8.79.

For `O=C(NCc1ccn2ccnc2c1)Nc1ccc(C2CCN(C(=O)c3cccc4c3CCC4=O)CC2)cc1` [Example 953, 1-(imidazo[1,2-a]pyridin-7-ylmethyl)-3-(4-{1-[(1-oxo-2,3-dihydro-1H-inden-4-yl)carbonyl]piperidin-4-yl}phenyl)urea], the pIC50 is 8.63.

In turn, `Cn1ncc2c(C(=O)N3CCC(c4ccc(NC(=O)NCc5ccn6ccnc6c5)cc4)CC3)cccc21` [Example 1152, 1-(imidazo[1,2-a]pyridin-7-ylmethyl)-3-(4-{1-[(1-methyl-1H-indazol-4-yl)carbonyl]piperidin-4-yl}phenyl)urea] showed a negative logarithm of the IC50 (pIC50) of 8.51.

As to `O=C(NCc1cn2ccnc2cn1)c1ccc(C2CCN(C(=O)c3ccccc3)CC2)cc1F` [Example 1159, 4-(1-benzoylpiperidin-4-yl)-2-fluoro-N-(imidazo[1,2-a]pyrazin-6-ylmethyl)benzamide], the pIC50 was 7.76.

Regarding `COC1CCC(C(=O)N2CCC(c3ccc(NC(=O)NCc4ccn5ccnc5c4)cc3)CC2)CC1` (stereo not drawn) [Example 1025, 1-(imidazo[1,2-a]pyridin-7-ylmethyl)-3-(4-{1-[(4-methoxycyclohexyl)carbonyl]piperidin-4-yl}phenyl)urea], the pIC50 is 9.09.

`O=C(NCc1ccn2ccnc2c1)Nc1ccc(C2CCN(C(=O)c3ccnn3C(F)F)CC2)cc1` [Example 1022, 1-[4-(1-{[1-(difluoromethyl)-1H-pyrazol-5-yl]carbonyl}piperidin-4-yl)phenyl]-3-(imidazo[1,2-a]pyridin-7-ylmethyl)urea] showed a pIC50 of 8.53.

On to `O=C(NCc1ccn2ccnc2c1)Nc1ccc(C2CCN(C(=O)c3nc4ccccc4s3)CC2)cc1` [Example 1054, 1-{4-[1-(1,3-benzothiazol-2-ylcarbonyl)piperidin-4-yl]phenyl}-3-(imidazo[1,2-a]pyridin-7-ylmethyl)urea], for which the pIC50 is 7.59.

As to `C=CCn1nc(C)cc1C(=O)N1CCC(c2ccc(C(=O)NCc3ccn4ccnc4c3)cc2)CC1` [Example 1003, N-(imidazo[1,2-a]pyridin-7-ylmethyl)-4-(1-{[3-methyl-1-(prop-2-en-1-yl)-1H-pyrazol-5-yl]carbonyl}piperidin-4-yl)benzamide], the negative-log IC50 (pIC50) was 8.30.

Compound `O=C(NCc1ccn2ccnc2c1)Nc1ccc(C2CCN(C(=O)c3cccc4ncsc34)CC2)cc1` [Example 1060, 1-{4-[1-(1,3-benzothiazol-7-ylcarbonyl)piperidin-4-yl]phenyl}-3-(imidazo[1,2-a]pyridin-7-ylmethyl)urea] had a negative-log IC50 (pIC50) of 8.64.
